Laboratory results taken from ChEMBL document CHEMBL1140916, “Structure-activity relationship of new anti-hepatitis C virus agents: heterobicycle-coumarin conjugates” (J Med Chem, 2009).

Experiments:
Hepatitis C virus = experiment: Antiviral activity against HCV infected in human Huh5-2 cells assessed as reduction of virus-induced cytopathogenicity after 4 days; format: functional, organism-based, Hepacivirus hominis; details: Huh-5-2, 96 h
[1] = Cytotoxicity against HCV infected human Huh5-2 cells assessed as microscopically detectable alteration in cell morphology after 3 days; format: cell-based, Huh-5-2; details: HCV infected Huh5-2 cells
[2] = Selectivity index, ratio of CC50 for human Huh 5-2 cells to EC50 for HCV

| EC50 (Hepatitis C virus) | SMILES | CC50 at 72 h [1] | Ratio CC50/EC50 [2] |
| --- | --- | --- | --- |
| 27 µM | O=c1oc2ccccc2cc1CSc1nc2ccccc2[nH]1 | 90 µM | 3.4 |
| 63 µM | CC(=O)OC[C@H]1O[C@@H](n2c(SCc3ccc([N+](=O)[O-])cc3)nc3ccccc32)[C@H](OC(C)=O)[C@@H](OC(C)=O)[C@@H]1OC(C)=O | 83 µM | 1.3 |
| 100 µM | Clc1cc2nc(SCc3ccncc3)[nH]c2cc1Cl | 107 µM | 1.1 |
| 6.8 µM | O=c1oc2ccc(Br)cc2cc1CSc1nc2cccnc2[nH]1 | 128 µM | 19 |
| 1.8 µM | CC(=O)OC[C@H]1O[C@@H](n2c(SCc3cc4cc(Br)ccc4oc3=O)nc3cc(Cl)c(Cl)cc32)C[C@@H](OC(C)=O)[C@@H]1OC(C)=O | 11 µM | 6.4 |
| 199 µM | Cc1ccc2[nH]c(SCc3ccncc3)nc2c1 | 199 µM | 1 |
| 104 µM | CC(=O)OC[C@H]1O[C@@H](n2c(=S)[nH]c3ccccc32)[C@H](OC(C)=O)[C@@H](OC(C)=O)[C@@H]1OC(C)=O | 104 µM | 1 |
| 12 µM | O=c1oc2ccccc2cc1CSc1nc2ccccc2o1 | 45 µM | 3.9 |

Continued, compound first:

| SMILES | EC50 (Hepatitis C virus) | CC50 at 72 h [1] | Ratio CC50/EC50 [2] |
| --- | --- | --- | --- |
| COc1cccc2cc(CSc3nc4ccccc4s3)c(=O)oc12 | 29 µM | 40 µM | 1.4 |
| CC(=O)OC[C@H]1O[C@@H](n2c(SCc3cc4cc(Br)ccc4oc3=O)nc3ccccc32)C[C@@H](OC(C)=O)[C@@H]1OC(C)=O | 4.1 µM | 16 µM | 4 |
| O=c1oc2ccccc2cc1CSc1nc2ccccc2s1 | 80 µM | 153 µM | 1.9 |
| COc1cccc2cc(CSc3nc4ccccc4n3[C@H]3C[C@@H](OC(C)=O)[C@H](OC(C)=O)[C@@H](COC(C)=O)O3)c(=O)oc12 | 12 µM | 26 µM | 2.2 |
| COc1cccc2cc(CSc3nc4cncnc4[nH]3)c(=O)oc12 | 20 µM | 94 µM | 4.8 |
| COc1cccc2cc(CSc3nc4ccccc4[nH]3)c(=O)oc12 | 10 µM | 27 µM | 2.8 |
| O=c1oc2ccccc2cc1CSc1nc2cccnc2[nH]1 | 59 µM | 95 µM | 1.6 |
| COc1cccc2cc(CSc3nc4cccnc4[nH]3)c(=O)oc12 | 11 µM | 30 µM | 2.8 |
| Fc1ccc2[nH]c(SCc3ccncc3)nc2c1 | 184 µM | 196 µM | 1.1 |
| O=c1oc2ccccc2cc1CSc1nc2cc(Cl)c(Cl)cc2[nH]1 | 15 µM | 74 µM | 4.9 |
| COc1cccc2cc(CSc3nc4ccccc4o3)c(=O)oc12 | 19 µM | 18 µM | 0.96 |
| O=c1oc2ccccc2cc1CSc1nc2cncnc2[nH]1 | 2 µM | 109 µM | 54 |
| O=c1oc2ccc(Br)cc2cc1CSc1nc2ccccc2o1 | 12 µM | 131 µM | 11 |
| Fc1ccc2[nH]c(SCc3ccccc3)nc2c1 | 197 µM | 197 µM | 1 |
| c1ccc2cc(CSc3nc4ccccc4[nH]3)ccc2c1 | 76 µM | 56 µM | 0.73 |
